Data from PubChem BioAssay AID296 (DTP/NCI, 2004).
Where “and” joins values, the source holds several entries; their conditions need not be identical. Identical values can stand only once. Results filed as inconclusive are left out.

Test system: MX-1 breast xenograft, nude mice, tumor weight T/C
Test: NCI In Vivo Anticancer Drug Screen. Data for tumor model Human Mammary Carcinoma MX-1 Xenograft (intrarenal inoculation) in NU/NU Swiss (nude) mice
Settings: endpoint: mean tumor weight change, higher = larger tumour
Method in brief: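 Mice carrying the implanted tumor receive either test agent or vehicle. Tumor size or survival is then recorded for both groups. Results are stated as the treated-to-control quotient.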

[1] = dose: 100.0 mg/kg/injection, schedule: Q04DX003 (sc), vehicle: Klucel (hydroxypropylcellulose) (HPC)
[2] = dose: 200.0 mg/kg/injection, schedule: Q04DX003 (sc), vehicle: Klucel (hydroxypropylcellulose) (HPC)
[3] = dose: 600.0 mg/kg/injection, schedule: Q04DX003 (sc), vehicle: saline with Tween-80
[4] = dose: 1200.0 mg/kg/injection, schedule: Q04DX003 (sc), vehicle: saline with Tween-80
[5] = dose: 150.0 mg/kg/injection, schedule: Q04DX003 (sc), vehicle: saline with Tween-80
[6] = dose: 300.0 mg/kg/injection, schedule: Q04DX003 (sc), vehicle: saline with Tween-80
[7] = dose: 50.0 mg/kg/injection, schedule: Q01DX010 (sc), vehicle: Klucel (hydroxypropylcellulose) (HPC)
[8] = dose: 37.5 mg/kg/injection, schedule: Q04DX003 (sc), vehicle: saline with Tween-80
[9] = dose: 75.0 mg/kg/injection, schedule: Q04DX003 (sc), vehicle: saline with Tween-80
[10] = dose: 25.0 mg/kg/injection, schedule: Q04DX003 (sc), vehicle: saline with Tween-80
[11] = dose: 50.0 mg/kg/injection, schedule: Q04DX003 (sc), vehicle: saline with Tween-80
[12] = dose: 100.0 mg/kg/injection, schedule: Q04DX003 (sc), vehicle: saline with Tween-80
[13] = dose: 18.75 mg/kg/injection, schedule: Q04DX003 (sc), vehicle: saline with Tween-80

In the case of CC(=O)O[C@@H]1[C@@H](O)C2=C3[C@]4(C)[C@@H]1C(C)(C)C(=O)C[C@@H]4[C@]3(O)[C@H](OC(C)=O)[C@@]1(C[C@@H]1C)C2=O, the T/C (dose: 12.5 mg/kg/injection, schedule: Q01DX010 (sc), vehicle: saline with Tween-80) is reported as 106 % of control, the T/C (dose: 25.0 mg/kg/injection, schedule: Q01DX010 (sc), vehicle: saline with Tween-80) is reported as 114 % of control and the T/C (dose: 50.0 mg/kg/injection, schedule: Q01DX010 (sc), vehicle: saline with Tween-80) is reported as 319 % of control.
With CSc1cc(C)[o+]c(C)c1 the T/C (dose: 25.0 mg/kg/injection, schedule: Q04DX003 (sc), vehicle: Klucel (hydroxypropylcellulose) (HPC)) was 76 % of control, the T/C (dose: 50.0 mg/kg/injection, schedule: Q04DX003 (sc), vehicle: Klucel (hydroxypropylcellulose) (HPC)) was 68 % of control and the T/C [1] was 54 % of control. The T/C [2] was 36 % of control.
For Oc1cc2c3c(c1)c1cc4c(cc1c[n+]3CC2)OCO4, the T/C (dose: 200.0 mg/kg/injection, schedule: Q04DX003 (sc), vehicle: water) was 72 % of control, the T/C (dose: 400.0 mg/kg/injection, schedule: Q04DX003 (sc), vehicle: water) was 100 % of control and the T/C (dose: 1600.0 mg/kg/injection, schedule: Q04DX003 (sc), vehicle: water) was 72 % of control.
For O=[N+]([O-])c1c(O)c(CNCCCO)cc(CNCCCO)c1O, the T/C (dose: 37.5 mg/kg/injection, schedule: Q04DX003 (ip), vehicle: suspension in saline) was 50 % of control and the T/C (dose: 75.0 mg/kg/injection, schedule: Q04DX003 (ip), vehicle: suspension in saline) was 55 % of control.
In the case of CCSC(=O)N1c2ccc(OC)cc2C=CC1C#N (stereo not given), the T/C [3] is reported as 119 % of control, the T/C [4] is reported as 85 % of control and the T/C (dose: 2400.0 mg/kg/injection, schedule: Q04DX003 (sc), vehicle: saline with Tween-80) is reported as 57 % of control. The T/C (dose: 4800.0 mg/kg/injection, schedule: Q04DX003 (sc), vehicle: saline with Tween-80) was 40 % of control.
In the case of CNC(=O)n1c(N)nc(-c2ccccc2)c1-c1ccccc1, the T/C [5] is reported as 105 % of control, the T/C [6] is reported as 62 % of control and the T/C [3] is reported as 62 % of control. The T/C [4] was 68 % of control.
CCCCCC[C@H]([C@H](C)O)n1cnc2c(N)ncnc21 was tested, and the T/C [7] was 43 % of control, the T/C (dose: 100.0 mg/kg/injection, schedule: Q01DX010 (sc), vehicle: Klucel (hydroxypropylcellulose) (HPC)) was 116 % of control and the T/C (dose: 200.0 mg/kg/injection, schedule: Q01DX010 (sc), vehicle: Klucel (hydroxypropylcellulose) (HPC)) was 94 % of control.
For CN(Cc1cnc2nc(N)nc(N)c2n1)c1c(Cl)cc(C(=O)NC(CCC(=O)O)C(=O)O)cc1Cl (stereo not given), the T/C (dose: 12.5 mg/kg/injection, schedule: Q01DX010 (sc), vehicle: Klucel (hydroxypropylcellulose) (HPC)) was 86 % of control, the T/C (dose: 25.0 mg/kg/injection, schedule: Q01DX010 (sc), vehicle: Klucel (hydroxypropylcellulose) (HPC)) was 44 % of control and the T/C [7] was -25 % of control.
In the case of Cc1ccccc1SSc1ccccc1C, the T/C (dose: 200.0 mg/kg/injection, schedule: Q01DX010 (sc), vehicle: saline with Tween-80) is reported as 88 % of control, the T/C (dose: 400.0 mg/kg/injection, schedule: Q01DX010 (sc), vehicle: saline with Tween-80) is reported as 96 % of control and the T/C (dose: 800.0 mg/kg/injection, schedule: Q01DX010 (sc), vehicle: saline with Tween-80) is reported as 91 % of control.
For O=S(=O)(SC(S(=O)(=O)c1ccccc1)S(=O)(=O)c1ccccc1)c1ccccc1, the T/C [1] was 68 % of control, the T/C [2] was 42 % of control and the T/C (dose: 400.0 mg/kg/injection, schedule: Q04DX003 (sc), vehicle: Klucel (hydroxypropylcellulose) (HPC)) was 84 % of control. The T/C (dose: 600.0 mg/kg/injection, schedule: Q04DX003 (sc), vehicle: Klucel (hydroxypropylcellulose) (HPC)) was 100 % of control, the T/C (dose: 800.0 mg/kg/injection, schedule: Q04DX003 (sc), vehicle: Klucel (hydroxypropylcellulose) (HPC)) was 87 % of control and 98 % of control and the T/C (dose: 1600.0 mg/kg/injection, schedule: Q04DX003 (sc), vehicle: Klucel (hydroxypropylcellulose) (HPC)) was 112 % of control.
With COc1cccc2c1C(=O)c1c(O)c3c(c(O)c1C2=O)C[C@@](O)(C(C)=O)C[C@@H]3OC1CC(N(C)C)C(O)C(C)O1 (stereo not given in full) the T/C (dose: 2.0 mg/kg/injection, schedule: Q01DX010 (sc), vehicle: water) was 293 % of control and the T/C (dose: 4.0 mg/kg/injection, schedule: Q01DX010 (sc), vehicle: water) was 120 % of control.
Nc1ncnc2c1nnn2C1OC(CO)C(O)C1O (stereo not given) was tested, and the T/C (dose: 18.75 mg/kg/injection, schedule: Q04DX003 (sc), vehicle: Klucel (hydroxypropylcellulose) (HPC)) was 76 % of control and 80 % of control.
For CC(=O)C(O)N1C(=O)C=CC1=O (stereo not given), the T/C (dose: 2.5 mg/kg/injection, schedule: Q01DX010 (sc), vehicle: saline) was 157 % of control, the T/C (dose: 5.0 mg/kg/injection, schedule: Q01DX010 (sc), vehicle: saline) was 117 % of control and the T/C (dose: 10.0 mg/kg/injection, schedule: Q01DX010 (sc), vehicle: saline) was 159 % of control.
For Nc1nc(N)c2c(ccc3c2ccn3Cc2cccc([N+](=O)[O-])c2)n1, the T/C [8] was 98 % of control and the T/C [9] was 94 % of control.
For [Cl][Pt+2][Cl].[NH-]C1CCC1.[NH2-], the T/C (dose: 6.25 mg/kg/injection, schedule: Q04DX003 (sc), vehicle: suspension in saline) was -100 % of control and the T/C (dose: 25.0 mg/kg/injection, schedule: Q04DX003 (sc), vehicle: suspension in saline) was -84 % of control and -100 % of control.
COC1=CCC23C(=O)C=CC(=O)C2(C1)C(=O)c1ccccc1C3=O (stereo not given) was tested, and the T/C (dose: 37.5 mg/kg/injection, schedule: Q04DX003 (ip), vehicle: saline with Tween-80) was 109 % of control.
In the case of CN=C(N)N/N=C(\c1ccccc1)c1ccc(Br)cc1, the T/C [10] is reported as 101 % of control, the T/C [11] is reported as 163 % of control and the T/C [12] is reported as 78 % of control.
For CC(=O)[C@]1(O)Cc2c(O)c3c(c(O)c2[C@@H](OC2CC(N)C(O)C(C)O2)C1)C(=O)c1c(O)cccc1C3=O (stereo not given in full), the T/C (dose: 0.25 mg/kg/injection, schedule: Q01DX010 (sc), vehicle: saline) was 167 % of control and the T/C (dose: 0.5 mg/kg/injection, schedule: Q01DX010 (sc), vehicle: saline) was 68 % of control.
COC1/C=C\C=C(/C)C(=O)NC2=CC(=O)C=C(C2=O)C(OC)C(C)CC(OC)C(OC)C(C)/C=C(/C)C1OC(N)=O (stereo not given) was tested, and the T/C (dose: 2.25 mg/kg/injection, schedule: Q04DX003 (sc), vehicle: Klucel (hydroxypropylcellulose) (HPC)) was 77 % of control, the T/C (dose: 4.5 mg/kg/injection, schedule: Q04DX003 (sc), vehicle: Klucel (hydroxypropylcellulose) (HPC)) was 63 % of control and the T/C (dose: 9.0 mg/kg/injection, schedule: Q04DX003 (sc), vehicle: Klucel (hydroxypropylcellulose) (HPC)) was 52 % of control.
With CC1c2ccccc2CC(CCN(C)C)c2ccccc21 (stereo not given) the T/C (dose: 9.37 mg/kg/injection, schedule: Q04DX003 (sc), vehicle: saline with Tween-80) was 101 % of control, the T/C (dose: 12.5 mg/kg/injection, schedule: Q04DX003 (sc), vehicle: saline with Tween-80) was 63 % of control and the T/C [13] was 83 % of control. For the same compound, the T/C [10] was 54 % of control, the T/C [8] was 52 % of control and the T/C [11] was 65 % of control. The T/C [9] was 26 % of control, the T/C [12] was 38 % of control and the T/C [5] was -3 % of control. For the same compound, the T/C [3] was -19 % of control.
In the case of CC(C)CCCCCCCCCCCCC(=O)NCC(=O)NC1C(O)C(O)C(Nc2ncnc3nc[nH]c23)OC1C(O)CO (stereo not given), the T/C (dose: 0.31 mg/kg/injection, schedule: Q01DX010 (sc), vehicle: saline) is reported as 158 % of control, the T/C (dose: 0.4 mg/kg/injection, schedule: Q01DX010 (sc), vehicle: saline) is reported as 194 % of control and the T/C (dose: 0.63 mg/kg/injection, schedule: Q01DX010 (sc), vehicle: saline) is reported as 105 % of control. The T/C (dose: 0.8 mg/kg/injection, schedule: Q01DX010 (sc), vehicle: saline) was 93 % of control, the T/C (dose: 1.25 mg/kg/injection, schedule: Q01DX010 (sc), vehicle: saline) was 80 % of control and the T/C (dose: 1.6 mg/kg/injection, schedule: Q01DX010 (sc), vehicle: saline) was 40 % of control.
CC(C)NC(=O)OCc1c(COC(=O)NC(C)C)c(-c2ccc(Cl)c(Cl)c2)n2c1CCC2 was tested, and the T/C (dose: 25.0 mg/kg/injection, schedule: Q01DX010 (sc), vehicle: distilled water + Tween-80) was -21 % of control, the T/C (dose: 50.0 mg/kg/injection, schedule: Q01DX010 (sc), vehicle: distilled water + Tween-80) was 16 % of control and the T/C (dose: 150.0 mg/kg/injection, schedule: Q04DX003 (ip), vehicle: saline) was 21 % of control. The T/C (dose: 300.0 mg/kg/injection, schedule: Q04DX003 (ip), vehicle: saline) was 28 % of control.
In the case of CC(=O)Nc1ccc(O)c(O)c1, the T/C [6] is reported as 75 % of control, the T/C [3] is reported as 52 % of control and the T/C [4] is reported as 47 % of control.
COC(=O)C(F)C(Br)C(=O)OC (stereo not given) was tested, and the T/C [13] was 52 % of control, the T/C [8] was 49 % of control and the T/C [9] was 59 % of control.
